Measured values from PMC12518634, “The noncanonical function of liver-type phosphofructokinase potentiates the efficacy of HDAC inhibitors in cancer” (Signal Transduction and Targeted Therapy, 2025).
Like-named read-outs stand apart in the source and are kept apart here.

How the values were obtained:
1405R3 = experiment: High-throughput drug screen, CellTiter-Glo viability, 72 h; format: cell-based, human; set-up: AUC: scale not given here; conditions: 1405R3 DSRT analysis; for AUC: area under the dose-response curve; for MIN: lower asymptote of fitted dose-response curve; for EC50: fitted dose-response curve, Min.Conc.tested 1, Max.Conc.tested 10000, CellTiter-Glo, 72 h, read-out: EC50; for SLOPE: slope of fitted dose-response curve
Description: (§1) The cells were seeded and incubated with a gradient of concentrations of drugs for 72 h, after which the cell viability was assessed (Supplementary Fig. 1a). The drug library primarily comprises epigenetic drugs, including HDAC inhibitors, DNA methyltransferase inhibitors, and histone demethylase inhibitors, as well as conventional chemotherapies and kinase inhibitors (Supplementary Fig. 1b and Supplementary Table 1). […] To identify novel therapeutics against CCA, we conducted a high-throughput screen employing PerkinElmer’s integrated robotic Explorer G3 workstations. […] Following dilution to five specified concentrations, drugs were dispensed into 96-well plates in the sequence detailed in Supplementary Fig. 1a. The CCA cell lines were subsequently plated in 384-well plates at a density of 3000 cells per well in a 20 μL total volume. After a 24-h incubation, the compounds were added to the wells and incubated for 72 h. We then quantified cell viability via the CellTiter-Glo luminescent assay according to the manufacturer’s protocol. Signal detection was carried out on a Synergy2 plate reader operated by Gen5 software (BioTek). For data processing, the raw luminescence data were processed through the Breeze pipeline for curve fitting, yielding quality control metrics (e.g., Z-factors) and drug response parameters (AUC and DSS), as adapted from previous work.[54] Drug responses were evaluated on the basis of the drug sensitivity score (DSS), and a cutoff of ≥10 was used to define efficacy. The complete drug library and screening dataset are available in Supplementary Tables 1-3.
(§2) Supplementary Fig. 1. A high-throughput drug screen to identify drugs targeting CCA. a Schematic representation of the drug screening protocol. […] Each drug was tested at five different concentrations (10, 1, 0.1, 0.01, and 0.001 μM), and each treatment was replicated twice. b Classification of drugs used for screening.

783C-6 = experiment: as above; format: cell-based, human; set-up: AUC: scale not given here; conditions: for DSS: DSS calculated from the dose-response curve; for MIN: MIN of the fitted dose-response curve; for AUC: area under the dose-response curve; for EC50: 72 h, read-out: EC50; for SLOPE: slope of the fitted dose-response curve
Description: as §1, §2

[1] = 783C-6 DSRT analysis, CellTiter-Glo viability, fitted dose-response curve, Min.Conc.tested 1, Max.Conc.tested 10000

SMILES | DSS (1405R3) | AUC (1405R3) | MIN (1405R3) | EC50 (1405R3; Homo sapiens) [µM] | DSS (783C-6; 783C-6 DSRT analysis) | MIN (783C-6; 783C-6 DSRT analysis) | AUC (783C-6; 783C-6 DSRT analysis) | EC50 (783C-6; Homo sapiens) [µM] | EC50 (1405R3) [µM] | SLOPE (1405R3) | EC50 (783C-6; [1]) [µM] | SLOPE (783C-6; 783C-6 DSRT analysis)
C#Cc1cccc(Nc2ncnc3cc(OC)c(OCCCCCCC(=O)NO)cc23)c1 [CUDC-101] | 10 | 85.7 | 2.9 | 1.31 | 8.7 | 2.2 | 75.9 | 1.68 |  |  |  | 
COc1ccc(-c2nc(N3CCOCC3)c3sc(CN(C)c4ncc(C(=O)NO)cn4)cc3n2)cn1 [CUDC-907] | 22.6 | 188.1 | 0.8 | 0.127 | 21.1 | 2.9 | 175.2 | 0.157 |  |  |  | 
C=CC(=O)Nc1cc2c(Nc3ccc(F)c(Cl)c3)ncnc2cc1OCCCN1CCOCC1 [Canertinib] | 0 | 33.5 | 78.5 |  | 0 | 75.6 | 7.4 |  |  |  |  | 
COc1cc2c(Oc3ccc4[nH]c(C)cc4c3F)ncnc2cc1OCCCN1CCCC1 [Cediranib] | 5.6 | 50.5 | 9.6 | 2.81 | 2.4 | 57.8 | 23.3 | 2.85 |  |  |  | 
N.N.[Cl][Pt][Cl] [Cisplatin] | 2 | 22.7 | 71.3 |  | 2 | 65.1 | 20.4 |  | 1.65 | -1.8 | 2.63 | -2.5
O=C(CCCCCCNC(=O)c1cnc(N(c2ccccc2)c2ccccc2Cl)nc1)NO [Citarinostat] | 3.5 | 32.3 | 46.8 | 2.5 | 3.4 | 50.9 | 31.7 | 2.28 |  |  |  | 
COc1cc(/C=C/C(=O)CC(=O)/C=C/c2ccc(O)c(OC)c2)ccc1O [Curcumin] | 0 | 1 | 97.3 |  | 0 | 96.8 | 2.1 |  |  |  |  | 
Cc1sc2c(c1C)C(c1ccc(Cl)cc1)=N[C@@H](CC(=O)NCCCCCCCCNC(=O)COc1cccc3c1C(=O)N(C1CCC(=O)NC1=O)C3=O)c1nnc(C)n1-2 (stereo partly drawn) [DBET6] | 0.4 | 8.2 | 80 |  | 6.9 | 29.1 | 59.2 |  |  | -2.5 | 1.47 | -2.5
O=C(/C=C/c1ccc(CN(CCO)CCc2c[nH]c3ccccc23)cc1)NO [Dacinostat] | 15.8 | 132.5 | 1.4 | 0.453 | 11.6 | 2.5 | 99 | 0.965 |  |  |  | 
CN(C)NC(=O)CCC(=O)O [Daminozide] | 0 | 0.1 | 99.6 |  | 0 | 97.8 | 1 |  |  |  |  | 
Nc1ncn([C@H]2C[C@H](O)[C@@H](CO)O2)c(=O)n1 [Decitabine] | 0 | 0.1 | 100 |  | 0.5 | 88.5 | 19.6 |  |  |  |  | 
CCCC(CCC)C(=O)O [Divalproex Sodium] | 0 | 0.1 | 100 |  | 0 | 96.3 | 0.4 |  |  |  |  | 
CN1CCN(c2ccc3nc(-c4c(N)c5c(F)cccc5[nH]c4=O)[nH]c3c2)CC1 [Dovitinib] | 4.2 | 38.6 | 29.8 | 2.87 | 4.1 | 35.6 | 37 | 2.7 |  |  |  | 
Cc1cc(Cl)ccc1OCCCC(=O)NO [Droxinostat] | 0 | 1.2 | 97.1 |  | 0 | 90.5 | 2.9 |  |  | -0.7 |  | -1
